Experiments:
normal pressure monkeys [1] = assay: Intraocular pressure lowering effect of sepetaprost and netarsudil, alone and concomitantly (Example 2); type: in vivo, cynomolgus monkey; details: eye drop 20 μL/eye, sepetaprost 0.0003% (w/v), netarsudil 0.01% (w/v), average of 8 monkeys
Protocol: In order to examine usefulness of the combination of sepetaprost and a Rho-associated coiled-coil containing protein kinase inhibitor(s), the effect of lowering an intraocular pressure when sepetaprost and netarsudil which is a Rho-associated coiled-coil containing protein kinase inhibitor were administered concomitantly to experimental animals (normal pressure monkeys) was investigated. Sepetaprost was dissolved in purified water containing a solubilizing agent, and then, a sepetaprost solution with a desired concentration was prepared by using a commonly used method. […] An effect of lowering an intraocular pressure when sepetaprost and netarsudil were administered concomitantly was investigated. As a comparative subject, an effect of lowering an intraocular pressure when sepetaprost or netarsudil was administered alone was also investigated. As a control, the base of the sepetaprost solution and the base of the netarsudil solution were administered. […] Also, the intraocular pressure was measured each three times, and the average value was calculated. With respect to the changed value of the intraocular pressure (mmHg), a difference from the value of the intraocular pressure before administration at each measurement time point was calculated. […] The test was carried out in the same manner as the above-mentioned concomitant administration test except for changing the netarsudil solution to the base of the netarsudil solution. The test was carried out in the same manner as the above-mentioned concomitant administration test except for changing the sepetaprost solution to the base of the sepetaprost solution. The test was carried out in the same manner as the above-mentioned concomitant administration test except for changing the sepetaprost solution to the base of the sepetaprost solution and changing the netarsudil solution to the base of the netarsudil solution. The changes in the lowering of the intraocular pressure with the lapse of time for each administered group are shown in FIG. 2 and Table 2. The change in the intraocular pressure values are shown by an average value ±SEM of the difference from the value (0 hour) before administration of eight monkeys in each group with regard to each measurement time point of each individual. Comparison of the control group with the sepetaprost group, the netarsudil group, or the sepetaprost/netarsudil concomitant use group, and comparison of the sepetaprost/netarsudil concomitant use group with the sepetaprost group or the netarsudil group was carried out by, after carrying out the Bartlett test, in the case where dispersion is uniform, using the Dunnett test, or in the case of ununiform, using the Steel test. The significance level with respect to the control group was shown as *: p<0.05 and **: p<0.01 in the Steel test, and *: […] in the Dunnett test.

normal pressure monkeys [2] = assay: Intraocular pressure lowering effect of sepetaprost and ripasudil, alone and concomitantly (Example 1); type: in vivo, cynomolgus monkey; details: eye drop 20 μL/eye, sepetaprost 0.0003% (w/v), ripasudil 0.4% (w/v), average of 8 monkeys
Protocol: In order to examine usefulness of the combination of sepetaprost and a Rho-associated coiled-coil containing protein kinase inhibitor(s), the effect of lowering an intraocular pressure when sepetaprost and ripasudil which is a Rho-associated coiled-coil containing protein kinase inhibitor were administered concomitantly to experimental animals (normal pressure monkeys) was investigated. Sepetaprost was dissolved in purified water containing a solubilizing agent, and then, a sepetaprost solution with a desired concentration was prepared by using a commonly used method. Commercially available ripasudil eye drop (Kowa Company, Ltd., […] (Registered Trademark) eye drops 0.4%) was used as it was. An effect of lowering an intraocular pressure when sepetaprost and ripasudil were administered concomitantly was investigated. As a comparative subject, an effect of lowering an intraocular pressure when sepetaprost or ripasudil was administered alone was also investigated. As a control, the base of the sepetaprost solution and physiological saline solution were administered. • Sepetaprost solution: 0.0003% (w/v) sepetaprost solution (volume of eye dropped: 20 μL/eye) • Ripasudil solution: 0.4% (w/v) ripasudil solution (trade name: […] Also, the intraocular pressure was measured each three times, and the average value was calculated. With respect to the changed value of the intraocular pressure (mmHg), a difference from the value of the intraocular pressure before administration at each measurement time point was calculated. […] The test was carried out in the same manner as the above-mentioned concomitant administration test except for changing the ripasudil solution to the physiological saline solution. The test was carried out in the same manner as the above-mentioned concomitant administration test except for changing the sepetaprost solution to the base of the sepetaprost solution. The test was carried out in the same manner as the above-mentioned concomitant administration test except for changing the sepetaprost solution to the base of the sepetaprost solution and changing the ripasudil solution to the physiological saline solution. The changes in the lowering of the intraocular pressure with the lapse of time for each administered group are shown in FIG. 1 and Table 1. The changes in the intraocular pressure values are shown by an average value ±SEM of the difference from the value (0 hour) before administration of eight monkeys in each group with regard to each measurement time point of each individual. Comparison of the control group with the sepetaprost group, the ripasudil group, or the sepetaprost/ripasudil concomitant use group, and comparison of the sepetaprost/ripasudil concomitant use group with the sepetaprost group or the ripasudil group was carried out by, after carrying out the Bartlett test, in the case where dispersion is uniform, using the Dunnett test, or in the case of ununiform, using the Steel test. The significance level with respect to the control group was shown as ##: p<0.01 in the Dunnett test, and *: p<0.05 and **: p<0.01 in the Steel test.

Structure (SMILES) | changed value of the intraocular pressure (difference from value before administration) (normal pressure monkeys [1]; 2 hours after dropping) [mmHg] | changed value of the intraocular pressure (difference from value before administration) (normal pressure monkeys [1]; 4 hours after dropping) [mmHg] | changed value of the intraocular pressure (difference from value before administration) (normal pressure monkeys [1]; 6 hours after dropping) [mmHg] | changed value of the intraocular pressure (difference from value before administration) (normal pressure monkeys [1]; 8 hours after dropping) [mmHg] | changed value of the intraocular pressure (difference from value before administration) (normal pressure monkeys [1]; 24 hours after dropping) [mmHg] | changed value of the intraocular pressure (difference from value before administration) (normal pressure monkeys [2]; 2 hours after dropping) [mmHg] | changed value of the intraocular pressure (difference from value before administration) (normal pressure monkeys [2]; 4 hours after dropping) [mmHg] | changed value of the intraocular pressure (difference from value before administration) (normal pressure monkeys [2]; 6 hours after dropping) [mmHg] | changed value of the intraocular pressure (difference from value before administration) (normal pressure monkeys [2]; 8 hours after dropping) [mmHg] | changed value of the intraocular pressure (difference from value before administration) (normal pressure monkeys [2]; 24 hours after dropping) [mmHg]
Cc1ccc(C(=O)OCc2ccc([C@@H](CN)C(=O)Nc3ccc4cnccc4c3)cc2)c(C)c1 [Netarsudil, [4-[(1S)-1-(aminomethyl)-2-(isoquinolin-6-ylamino)-2-oxoethyl]phenyl]methyl 2,4-dimethylbenzoate] | −0.4 | −2.2 | −2.1 | −2.3 | −0.6 | – | – | – | – | –
CC(C)OC(=O)CCC[C@H]1CC[C@@H]2[C@@H](/C=C/[C@@H](O)COc3cc(F)ccc3F)[C@H](O)C[C@@H]2OC1 [Sepetaprost, 2-propanyl 4-{(3S, 5aR, 6R, 7R, 8aS)-6-[(1E, 3R)-4-(2,5-difluorophenoxy)-3-hydroxy-1-buten-1-yl]-7-hydroxyoctahydro-2H-cyclopenta[b]oxepin-3-yl}butanoate] | −0.2 | −1.6 | −2.2 | −2.0 | −1.1 | −0.1 | −0.9 | −1.8 | −1.9 | −0.6
C[C@H]1CNCCCN1S(=O)(=O)c1cccc2cncc(F)c12 [Ripasudil, (S)-(−)-1-(4-fluoro-5-isoquinolinesulfonyl)-2-methyl-1,4-homopiperazine] | – | – | – | – | – | −2.4 | −1.8 | −1.6 | −1.5 | −0.4
